What was measured:
[1] = Example 2 aqueous humor concentrations; assay type: in vivo, male New Zealand White rabbits; conditions: intravitreal, topical ocular, subcutaneous
Description: (§1) To measure the concentration of Compound 1 in plasma and ocular tissues following topical ocular, subcutaneous, and intravitreal administration, New Zealand White rabbits were administered Compound 1, and plasma and ocular samples were collected at pre-determined time points. Compound 1 formulations were prepared fresh on each day of dosing.
(§2) Ocular tissue samples from both eyes of each animal were collected and weights were recorded. Plasma and ocular tissue sample concentrations of Compound 1 were determined by LC-MS/MS.
(§3) Animals were anesthetized for ocular (topical) and intravitreal dosing following the 12IA7 IACUC protocol. Each rabbit received a bolus dose of test formulation either via topical ocular administration 3 times daily on Days 1 and 2 (at 0, 6, and 12 hours), and once on Day 3 (at 0 hours) into both eyes; via intravitreal administration into both eyes once on Day 1 (at 0 hours); or via subcutaneous administration 2 times daily on Days 1 and 2 (at 0 and 8 hours) and once daily on Day 3 (at 0 hours). Doses were given within an approximately 1 hour window each day where applicable.
(§4) On Day 1, for intravitreal administration, or on Day 3, for topical ocular and subcutaneous administration, at the appropriate ocular tissue collection time points, animals were euthanized and both eyes were enucleated immediately. Following enucleation, each eye was rinsed with phosphate-buffered saline. Ocular tissue samples from both eyes of each animal were collected at predetermined time points and weights were recorded. All the samples were frozen immediately on dry ice, and stored at −60° C. to −80° C. pending bioanalysis.
(§5) An LC-MS/MS method was developed for the determination of Compound 1 in rabbit aqueous tissues (plasma, aqueous and vitreous humor) and solid ocular tissue samples. A pre-study standard curve was analyzed to determine the specificity, range, and lower limit of quantitation of the method. Plasma and tissue homogenate study samples were extracted and analyzed. All the samples were treated identically to the standards.
(§6) One eight-point standard curve was used in each analytical batch. To be accepted, each batch must have had at least five of eight standards with accuracy within ±20% of nominal, except at the lower limit of quantification (LLOQ), where ±25% was acceptable.

[2] = Example 2 iris, retina, choroid and cornea tissue concentrations; assay type: in vivo, male New Zealand White rabbits
Description: as §1, §2, §3, §4, §5, §6

- iris, retina, choroid, cornea concentrations, intravitreal relative to subcutaneous or ocular topical ([2]; both test formulations): higher concentrations
- persistence of concentrations in all ocular tissues ([2]; intravitreal administration of both test formulations): persisted at 72 hours
Structure (SMILES): COC(=O)N[C@@H](Cc1ccccc1)C(=O)N[C@@H](Cc1ccc(NS(=O)(=O)O)cc1)c1csc(-c2cccs2)n1 [Compound 1]
- rank order of exposure in aqueous and vitreous humor by route [1]: intravitreal>>topical ocular>subcutaneous
